Results: the kinase profiling compilation of Christmann-Franck et al. (2016)

Experiments:
Assay in all cases: KINOMEscan competition binding
Settings in all cases: compound 10.0 µM
PIM3 (human) = PIM3 (human) (UniProt Q86V86)
PTK6 (human) = PTK6 (human) (UniProt Q13882)
LTK (human) = LTK (human) (UniProt P29376)
EPHA5 (human) = EPHA5 (human) (UniProt P54756)
[1] = test system: RET (human), P07949 [V804M]
AXL (human) = AXL (human) (UniProt P30530)
CDC42BPA (human) = CDC42BPA (human) (UniProt Q5VT25)
MAP2K5 (human) = MAP2K5 (human) (UniProt Q13163)
DMPK (human) = DMPK (human) (UniProt Q09013)
TGFBR2 (human) = TGFBR2 (human) (UniProt P37173)
MKNK2 (human) = MKNK2 (human) (UniProt Q9HBH9)
PRKX (human) = PRKX (human) (UniProt P51817)
PRKD1 (human) = PRKD1 (human) (UniProt Q15139)
CAMK4 (human) = CAMK4 (human) (UniProt Q16566)
NUAK2 (human) = NUAK2 (human) (UniProt Q9H093)
AKT1 (human) = AKT1 (human) (UniProt P31749)
MAP2K4 (human) = MAP2K4 (human) (UniProt P45985)
DYRK1A (human) = DYRK1A (human) (UniProt Q13627)
SIK3 (human) = SIK3 (human) (UniProt Q9Y2K2)
MAPK11 (human) = MAPK11 (human) (UniProt Q15759)
DYRK2 (human) = DYRK2 (human) (UniProt Q92630)
ERBB4 (human) = ERBB4 (human) (UniProt Q15303)
MAP3K12 (human) = MAP3K12 (human) (UniProt Q12852)
PRKG1 (human) = PRKG1 (human) (UniProt Q13976)
CSK (human) = CSK (human) (UniProt P41240)
EPHB1 (human) = EPHB1 (human) (UniProt P54762)
PKMYT1 (human) = PKMYT1 (human) (UniProt Q99640)
TYRO3 (human) = TYRO3 (human) (UniProt Q06418)
LIMK2 (human) = LIMK2 (human) (UniProt P53671)
CSNK1A1 (human) = CSNK1A1 (human) (UniProt P48729)
DAPK1 (human) = DAPK1 (human) (UniProt P53355)
BRSK1 (human) = BRSK1 (human) (UniProt Q8TDC3)
DCLK3 (human) = DCLK3 (human) (UniProt Q9C098)
CAMKK1 (human) = CAMKK1 (human) (UniProt Q8N5S9)
[2] = test system: EIF2AK4 KD2 (human), Q9P2K8 [S808G]
TLK2 (human) = TLK2 (human) (UniProt Q86UE8)
CHEK2 (human) = CHEK2 (human) (UniProt O96017)
MST1R (human) = MST1R (human) (UniProt Q04912)
PIK3C2B (human) = PIK3C2B (human) (UniProt O00750)
DSTYK (human) = DSTYK (human) (UniProt Q6XUX3)
CPK1 (P.falciparum) = test system: CPK1 (P.falciparum)
RPS6KA4 KD1 (human) = RPS6KA4 KD1 (human) (UniProt O75676)

Sequence of PRKX (human) (P51817 whole entry, looked up): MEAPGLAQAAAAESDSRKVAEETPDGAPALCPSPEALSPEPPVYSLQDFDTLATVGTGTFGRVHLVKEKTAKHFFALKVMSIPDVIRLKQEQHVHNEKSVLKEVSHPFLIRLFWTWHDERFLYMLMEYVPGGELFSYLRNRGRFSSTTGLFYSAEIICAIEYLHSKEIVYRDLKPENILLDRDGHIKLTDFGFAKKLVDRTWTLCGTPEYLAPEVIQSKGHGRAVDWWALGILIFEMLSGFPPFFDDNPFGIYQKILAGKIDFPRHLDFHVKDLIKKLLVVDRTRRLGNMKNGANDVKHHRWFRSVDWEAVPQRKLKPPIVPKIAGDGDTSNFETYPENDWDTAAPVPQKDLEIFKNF
Sequence of MAP2K5 (human) (Q13163 whole entry, looked up): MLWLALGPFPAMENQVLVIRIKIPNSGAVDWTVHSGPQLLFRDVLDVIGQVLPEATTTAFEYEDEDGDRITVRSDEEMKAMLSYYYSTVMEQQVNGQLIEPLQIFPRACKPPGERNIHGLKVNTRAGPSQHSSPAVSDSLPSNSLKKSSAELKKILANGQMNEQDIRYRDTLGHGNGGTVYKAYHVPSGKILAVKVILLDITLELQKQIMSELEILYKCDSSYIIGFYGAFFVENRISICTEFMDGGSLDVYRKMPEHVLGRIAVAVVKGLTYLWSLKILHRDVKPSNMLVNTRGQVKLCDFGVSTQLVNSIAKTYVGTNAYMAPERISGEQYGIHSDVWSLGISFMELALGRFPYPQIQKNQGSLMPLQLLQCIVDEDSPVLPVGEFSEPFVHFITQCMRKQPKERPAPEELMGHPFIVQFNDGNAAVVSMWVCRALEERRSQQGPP
Sequence of DAPK1 (human) (P53355 whole entry, looked up): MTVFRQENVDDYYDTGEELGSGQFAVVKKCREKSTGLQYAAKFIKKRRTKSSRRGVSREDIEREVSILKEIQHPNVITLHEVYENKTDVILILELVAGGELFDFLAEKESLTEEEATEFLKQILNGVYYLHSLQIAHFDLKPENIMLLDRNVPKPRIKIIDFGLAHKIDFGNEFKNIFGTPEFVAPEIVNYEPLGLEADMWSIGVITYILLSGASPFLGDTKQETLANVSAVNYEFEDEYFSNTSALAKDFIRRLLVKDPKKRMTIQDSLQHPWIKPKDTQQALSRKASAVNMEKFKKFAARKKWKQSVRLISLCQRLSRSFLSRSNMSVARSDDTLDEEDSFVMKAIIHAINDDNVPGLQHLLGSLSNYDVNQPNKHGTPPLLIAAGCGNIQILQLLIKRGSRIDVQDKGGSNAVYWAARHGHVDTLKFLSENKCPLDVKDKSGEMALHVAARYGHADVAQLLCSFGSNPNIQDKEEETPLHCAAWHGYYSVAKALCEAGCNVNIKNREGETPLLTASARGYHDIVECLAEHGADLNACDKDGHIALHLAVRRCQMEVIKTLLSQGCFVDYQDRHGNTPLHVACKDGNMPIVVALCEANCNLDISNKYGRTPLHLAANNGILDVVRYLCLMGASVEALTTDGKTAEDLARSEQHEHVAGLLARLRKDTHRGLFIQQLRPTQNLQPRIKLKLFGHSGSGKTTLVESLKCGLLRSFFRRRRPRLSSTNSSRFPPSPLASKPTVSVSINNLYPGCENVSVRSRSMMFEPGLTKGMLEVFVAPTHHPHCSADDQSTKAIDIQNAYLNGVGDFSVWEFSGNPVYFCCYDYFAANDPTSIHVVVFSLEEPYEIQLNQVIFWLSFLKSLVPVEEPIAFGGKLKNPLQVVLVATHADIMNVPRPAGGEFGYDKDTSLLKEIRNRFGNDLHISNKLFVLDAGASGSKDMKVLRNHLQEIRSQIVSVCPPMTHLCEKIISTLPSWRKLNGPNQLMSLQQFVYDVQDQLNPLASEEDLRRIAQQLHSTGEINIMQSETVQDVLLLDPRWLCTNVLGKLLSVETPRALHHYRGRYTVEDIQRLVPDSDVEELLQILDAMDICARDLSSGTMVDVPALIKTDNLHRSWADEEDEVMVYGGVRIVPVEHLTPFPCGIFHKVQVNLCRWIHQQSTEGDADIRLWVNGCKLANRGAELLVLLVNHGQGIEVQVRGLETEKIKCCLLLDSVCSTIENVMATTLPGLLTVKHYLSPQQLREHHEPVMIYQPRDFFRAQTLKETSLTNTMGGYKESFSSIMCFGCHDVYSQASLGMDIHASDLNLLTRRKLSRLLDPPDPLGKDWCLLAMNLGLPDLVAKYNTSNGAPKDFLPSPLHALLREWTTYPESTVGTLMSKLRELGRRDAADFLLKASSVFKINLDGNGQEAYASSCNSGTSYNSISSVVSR
Sequence of EPHB1 (human) (P54762 whole entry, looked up): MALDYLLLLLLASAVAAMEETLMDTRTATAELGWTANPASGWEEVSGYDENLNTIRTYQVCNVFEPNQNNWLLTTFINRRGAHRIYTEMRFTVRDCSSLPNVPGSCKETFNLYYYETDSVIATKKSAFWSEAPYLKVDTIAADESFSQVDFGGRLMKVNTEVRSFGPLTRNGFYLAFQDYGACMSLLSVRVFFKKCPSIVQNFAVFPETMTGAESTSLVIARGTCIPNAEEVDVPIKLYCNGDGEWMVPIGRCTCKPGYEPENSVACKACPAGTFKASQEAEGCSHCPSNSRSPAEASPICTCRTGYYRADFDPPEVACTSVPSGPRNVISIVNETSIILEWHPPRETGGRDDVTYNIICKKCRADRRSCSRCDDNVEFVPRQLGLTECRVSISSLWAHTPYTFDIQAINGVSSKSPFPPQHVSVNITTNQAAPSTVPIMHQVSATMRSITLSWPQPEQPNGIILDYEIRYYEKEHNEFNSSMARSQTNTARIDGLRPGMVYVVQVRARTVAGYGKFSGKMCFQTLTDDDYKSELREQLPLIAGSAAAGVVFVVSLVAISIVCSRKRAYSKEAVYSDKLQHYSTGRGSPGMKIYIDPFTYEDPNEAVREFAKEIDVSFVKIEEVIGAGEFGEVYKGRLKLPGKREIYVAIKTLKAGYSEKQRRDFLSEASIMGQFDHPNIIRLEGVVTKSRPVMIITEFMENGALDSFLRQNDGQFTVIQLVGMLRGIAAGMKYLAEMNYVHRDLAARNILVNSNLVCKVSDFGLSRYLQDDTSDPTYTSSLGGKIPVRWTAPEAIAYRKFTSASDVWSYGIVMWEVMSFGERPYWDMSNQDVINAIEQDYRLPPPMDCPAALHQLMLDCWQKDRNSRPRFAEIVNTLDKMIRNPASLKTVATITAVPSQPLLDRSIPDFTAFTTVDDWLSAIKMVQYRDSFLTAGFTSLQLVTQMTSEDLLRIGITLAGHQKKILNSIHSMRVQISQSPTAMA
Sequence of CAMK4 (human) (Q16566 whole entry, looked up): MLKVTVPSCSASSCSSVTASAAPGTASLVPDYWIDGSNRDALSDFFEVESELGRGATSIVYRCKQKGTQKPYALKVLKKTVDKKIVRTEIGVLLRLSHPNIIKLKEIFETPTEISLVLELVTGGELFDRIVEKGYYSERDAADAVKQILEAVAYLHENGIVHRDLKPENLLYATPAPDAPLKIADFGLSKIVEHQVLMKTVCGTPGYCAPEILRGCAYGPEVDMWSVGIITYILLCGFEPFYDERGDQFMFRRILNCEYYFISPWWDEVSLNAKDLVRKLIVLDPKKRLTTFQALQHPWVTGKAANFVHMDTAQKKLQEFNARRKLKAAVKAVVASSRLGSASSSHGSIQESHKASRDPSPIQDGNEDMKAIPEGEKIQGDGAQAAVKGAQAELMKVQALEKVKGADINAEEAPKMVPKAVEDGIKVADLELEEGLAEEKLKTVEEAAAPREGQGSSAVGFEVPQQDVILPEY
Sequence of TLK2 (human) (Q86UE8 whole entry, looked up): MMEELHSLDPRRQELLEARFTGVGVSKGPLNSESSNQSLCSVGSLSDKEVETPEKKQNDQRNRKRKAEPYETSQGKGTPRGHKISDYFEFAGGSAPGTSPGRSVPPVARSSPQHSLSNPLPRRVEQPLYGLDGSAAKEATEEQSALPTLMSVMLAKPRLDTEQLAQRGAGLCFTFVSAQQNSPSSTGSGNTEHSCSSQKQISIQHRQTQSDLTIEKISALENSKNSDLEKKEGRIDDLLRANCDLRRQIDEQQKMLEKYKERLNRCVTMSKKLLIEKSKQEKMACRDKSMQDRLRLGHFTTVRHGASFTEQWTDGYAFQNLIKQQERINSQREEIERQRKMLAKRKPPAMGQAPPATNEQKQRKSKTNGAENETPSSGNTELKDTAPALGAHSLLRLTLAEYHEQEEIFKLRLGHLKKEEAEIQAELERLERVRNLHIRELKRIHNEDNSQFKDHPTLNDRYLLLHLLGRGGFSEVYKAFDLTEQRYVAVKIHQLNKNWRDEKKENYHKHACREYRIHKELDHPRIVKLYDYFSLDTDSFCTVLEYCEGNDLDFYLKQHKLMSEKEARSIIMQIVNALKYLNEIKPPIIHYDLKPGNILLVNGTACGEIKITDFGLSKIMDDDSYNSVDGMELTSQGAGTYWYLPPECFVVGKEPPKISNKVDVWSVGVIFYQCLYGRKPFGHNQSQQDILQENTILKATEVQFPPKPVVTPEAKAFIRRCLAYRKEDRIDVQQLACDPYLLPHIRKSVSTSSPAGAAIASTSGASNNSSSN

SMILES: Cc1cc([C@@H](C)Nc2ccccc2C(=O)O)c2nc(N3CCOCC3)cc(=O)n2c1
- kinase still bound, per cent of control (PIM3 (human)): 100%
- kinase still bound, per cent of control (PTK6 (human)): 15%
- kinase still bound, per cent of control (LTK (human)): 61%
- kinase still bound, per cent of control (EPHA5 (human)): 100%
- kinase still bound, per cent of control [1]: 99%
- kinase still bound, per cent of control (AXL (human)): 100%
- kinase still bound, per cent of control (CDC42BPA (human)): 100%
- kinase still bound, per cent of control (MAP2K5 (human)): 100%
- kinase still bound, per cent of control (DMPK (human)): 95%
- kinase still bound, per cent of control (TGFBR2 (human)): 100%
- kinase still bound, per cent of control (MKNK2 (human)): 100%
- kinase still bound, per cent of control (PRKX (human)): 100%
- kinase still bound, per cent of control (PRKD1 (human)): 100%
- kinase still bound, per cent of control (CAMK4 (human)): 100%
- kinase still bound, per cent of control (NUAK2 (human)): 100%
- kinase still bound, per cent of control (AKT1 (human)): 100%
- kinase still bound, per cent of control (MAP2K4 (human)): 70%
- kinase still bound, per cent of control (DYRK1A (human)): 99%
- kinase still bound, per cent of control (SIK3 (human)): 87%
- kinase still bound, per cent of control (MAPK11 (human)): 100%
- kinase still bound, per cent of control (DYRK2 (human)): 72%
- kinase still bound, per cent of control (ERBB4 (human)): 94%
- kinase still bound, per cent of control (MAP3K12 (human)): 98%
- kinase still bound, per cent of control (PRKG1 (human)): 79%
- kinase still bound, per cent of control (CSK (human)): 98%
- kinase still bound, per cent of control (EPHB1 (human)): 99%
- kinase still bound, per cent of control (PKMYT1 (human)): 99%
- kinase still bound, per cent of control (TYRO3 (human)): 100%
- kinase still bound, per cent of control (LIMK2 (human)): 100%
- kinase still bound, per cent of control (CSNK1A1 (human)): 100%
- kinase still bound, per cent of control (DAPK1 (human)): 100%
- kinase still bound, per cent of control (BRSK1 (human)): 100%
- kinase still bound, per cent of control (DCLK3 (human)): 100%
- kinase still bound, per cent of control (CAMKK1 (human)): 91%
- kinase still bound, per cent of control [2]: 78%
- kinase still bound, per cent of control (TLK2 (human)): 100%
- kinase still bound, per cent of control (CHEK2 (human)): 100%
- kinase still bound, per cent of control (MST1R (human)): 96%
- kinase still bound, per cent of control (PIK3C2B (human)): 1%
- kinase still bound, per cent of control (DSTYK (human)): 90%
- kinase still bound, per cent of control (CPK1 (P.falciparum)): 75%
- kinase still bound, per cent of control (RPS6KA4 KD1 (human)): 93%
